We go through six molecules from publication PMC10313662, “Structural insights into neurokinin 3 receptor activation by endogenous and analogue peptide agonists” (Cell Discovery, 2023).

Ends that are not written are not given here.

By Emax is commonly meant the maximal effect, on the per cent scale that the assay sets.

In one test the target is T1, wild-type NK3R (Homo sapiens, UniProt P29371).
T1 construct: FLAG (DYKDDDDK); expressed in transfected cells; host or cells: HEK293T
T1 sequence (P29371 1-465): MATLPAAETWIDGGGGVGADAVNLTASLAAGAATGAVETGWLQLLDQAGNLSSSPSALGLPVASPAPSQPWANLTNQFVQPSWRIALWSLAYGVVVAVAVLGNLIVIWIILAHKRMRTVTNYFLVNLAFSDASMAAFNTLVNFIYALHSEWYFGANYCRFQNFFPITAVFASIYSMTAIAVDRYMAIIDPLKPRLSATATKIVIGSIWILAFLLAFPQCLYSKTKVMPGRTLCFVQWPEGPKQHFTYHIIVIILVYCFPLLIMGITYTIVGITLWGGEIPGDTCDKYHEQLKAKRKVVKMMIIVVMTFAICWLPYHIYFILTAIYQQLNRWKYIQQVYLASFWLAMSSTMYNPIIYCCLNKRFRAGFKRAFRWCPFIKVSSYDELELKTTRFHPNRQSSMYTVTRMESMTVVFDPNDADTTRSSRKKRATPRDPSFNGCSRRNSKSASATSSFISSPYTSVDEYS
The experiment in a line: IP-one accumulation assay, wild-type NK3R. In kind it is cell-based.

For the next test, the system named is NK1R, NK2R, NK3R. The note with it: ref [21]; cited from earlier work.
Test [1] concerns the target T2, NK3R V235A (human, UniProt P29371 1-465, NK3R-V235^ECL2 to alanine).
T2 sequence (looked up): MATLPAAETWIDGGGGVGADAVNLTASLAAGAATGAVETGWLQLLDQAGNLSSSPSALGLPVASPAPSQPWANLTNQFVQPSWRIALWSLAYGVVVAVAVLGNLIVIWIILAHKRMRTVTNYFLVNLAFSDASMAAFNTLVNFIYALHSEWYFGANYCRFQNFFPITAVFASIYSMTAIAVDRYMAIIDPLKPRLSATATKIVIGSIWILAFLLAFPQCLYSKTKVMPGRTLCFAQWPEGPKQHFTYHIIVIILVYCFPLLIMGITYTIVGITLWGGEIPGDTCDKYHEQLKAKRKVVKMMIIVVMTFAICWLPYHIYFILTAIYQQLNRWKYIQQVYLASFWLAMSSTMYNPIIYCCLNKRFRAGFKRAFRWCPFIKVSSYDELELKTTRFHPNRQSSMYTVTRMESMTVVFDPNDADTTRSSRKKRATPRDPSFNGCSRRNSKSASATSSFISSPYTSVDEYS

For test [2], the target named is T2, NK3R V235A. The experiment in a line: cell-based or functional assay.

As to `CSCC[C@H](NC(=O)[C@H](CC(C)C)NC(=O)CNC(=O)[C@@H](NC(=O)[C@H](Cc1ccccc1)NC(=O)[C@H](Cc1ccccc1)NC(=O)[C@H](CC(=O)O)NC(=O)[C@H](Cc1c[nH]cn1)NC(=O)[C@H](CCSC)NC(=O)[C@@H](N)CC(=O)O)C(C)C)C(N)=O` [NKB, neurokinin B], the Emax at wild-type NK3R stood at 100%. At wild-type NK3R, `CSCC[C@H](NC(=O)[C@H](CC(C)C)NC(=O)CNC(=O)[C@H](Cc1ccccc1)NC(=O)[C@H](Cc1ccccc1)NC(=O)[C@H](CCC(N)=O)NC(=O)[C@H](CCC(N)=O)NC(=O)[C@@H]1CCCN1C(=O)[C@H](CCCCN)NC(=O)[C@@H]1CCCN1C(=O)[C@@H](N)CCCNC(=N)N)C(N)=O` [SP, substance P] gave an Emax of 100%. On to neurokinin A [NKA], for which the “Preferential receptor activation/binding, in words” value in the test with NK1R, NK2R, NK3R is “preferentially bind to NK1R and NK2R, respectively”.

For “senktide (suc-(Asp6, MePhe8) SP (6–11)) (peptide)”, in the test with NK3R V235A [1], the IP-one accumulation, HEK293T cells; fold decrease in receptor activation against wild-type NK3R, stimulated by senktide was 64 fold.

For RPKPQQFFGLM-NH2 (peptide, UniProt P20366 58-68, looked up) [substance P], in the test with NK3R V235A [2], the “IP-one accumulation, HEK293T cells; fold decrease in receptor activation against wild-type NK3R, stimulated by SP” value was determined as 30 fold.

For DMHDFFVGLM-NH2 (peptide, UniProt Q9UHF0 81-90, looked up) [neurokinin B], the “IP-one accumulation, HEK293T cells; fold decrease in receptor activation against wild-type NK3R, stimulated by NKB” value with NK3R V235A [2] is 5.2 fold.
